Laboratory results: patent publication US11629171B2, “Beta-hairpin peptidomimetics” (POLYPHOR AG, priority 2017, dated 2023)
In brackets after ≈: the same amount, converted by molar mass. Where a SMILES comes first, the peptide text is derived from it. Bridges are numbered along the chain shown (N, C = ends). Roman numbers before positions name the chains, in order. [ ]: non-standard residue; d: D form. The star is where a group is joined. Tle = CC(C)(C)[C@H](N)C(=O)O; NMeV = CN[C@H](C(=O)O)C(C)C; Hiv = CC(C)[C@H](O)C(=O)O; dDab = NCC[C@@H](N)C(=O)O; hSer = N[C@@H](CCO)C(=O)O; Dab = NCC[C@H](N)C(=O)O; NHCH2CH2OH = OCCN*

How the values were obtained:
Format in all cases: cell-based
[1] = tested on: Klebsiella pneumoniae SSI #3010; details: SSI #3010
Procedure, shortened: (§1)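 CLSI broth microdilution in cation-adjusted Mueller-Hinton II broth with 0.002% polysorbate 80 (final), inoculum appr. 10^6 CFU/mL, peptides in serial two-fold dilutions. MIC (μg/mL) is the lowest concentration without visible growth after 18-20 h at 35° C.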

[2] = tested on: Klebsiella pneumoniae 968733; details: 968733
Procedure, shortened: as §1

[3] = tested on: Pseudomonas aeruginosa ATCC 27853; details: ATCC 27853
Procedure, shortened: as §1

[4] = tested on: Enterobacter cloacae 848840; details: 848840
Procedure, shortened: as §1

[5] = tested on: Acinetobacter baumannii 872842; details: 872842
Procedure, shortened: as §1

Escherichia coli 926415 = details: 926415
Procedure, shortened: as §1

[6] = tested on: Acinetobacter baumannii DSM 30008; details: DSM 30008
Procedure, shortened: as §1

[7] = tested on: Escherichia coli ATCC 25922; details: ATCC 25922
Procedure, shortened: as §1

[8] = tested on: human red blood cells (hRBC); experiment: Hemolysis; details: red cells of human, 1 h, 200
Procedure, shortened: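 Percent lysis of human red cells was derived from OD540 of the supernatant, referenced to 2% Triton X-100, after a 1 h, 37° C incubation of 20% (v/v) cells with 200 μg/mL peptide.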

Klebsiella pneumoniae SSI #3010 MIC [1] [µg/mL] | MIC [2] [µg/mL] | Pseudomonas aeruginosa ATCC 27853 MIC [3] [µg/mL] | MIC [4] [µg/mL] | MIC [5] [µg/mL] | MIC (Escherichia coli 926415) [µg/mL] | Acinetobacter baumannii DSM 30008 MIC [6] [µg/mL] | Escherichia coli ATCC 25922 MIC [7] [µg/mL] | MIC [1] [µg/mL] | MIC [3] [µg/mL] | MIC [6] [µg/mL] | MIC [7] [µg/mL] | Compound | Hemolysis at 200 μg/mL [8] [%]
0.125 | 1 (≈ 0.413 µM) | 0.125 | 0.25 (≈ 0.103 µM) | 0.25 (≈ 0.103 µM) | 0.5 (≈ 0.207 µM) | 0.125 | 0.0625 |  |  |  |  | CC(=O)N[C@H](C(=O)N[C@H]1CCNC(=O)CC[C@@H](C(=O)N[C@@H](CO)C(N)=O)NC(=O)[C@H](C(C)C)NC(=O)[C@H](CO)NC(=O)[C@H](Cc2c[nH]c3ccccc23)NC(=O)[C@H](CO)NC(=O)[C@@H](CCN)NC(=O)[C@H](CCC(=O)N[C@@H](CCN)C(=O)N[C@H](C(=O)N[C@@H](CCN)C(=O)N[C@H]2CCNC(=O)[C@H]([C@@H](C)O)NC(=O)[C@H](CCN)NC(=O)[C@H](CCN)NC(=O)[C@H](CC(C)C)NC(=O)[C@@H](CC(C)C)NC(=O)[C@H](CCN)NC2=O)[C@@H](C)O)NC(=O)[C@H](CCN)NC(=O)[C@H](Cc2ccc(O)cc2)NC1=O)C(C)C [Ex. 321] (I: Ac-V[Dab]Y[Dab]E[dDab]SWSVES-NH2 / II: [Dab]T[Dab][Dab][Dab][dL]L[Dab][Dab]T; lactam I:2-I:11, II:4-II:C; amide I:5-II:N) | 0
 | 8 (≈ 3.38 µM) |  | 1 (≈ 0.422 µM) | 1 (≈ 0.422 µM) | 2 (≈ 0.844 µM) |  |  | 0.25 (≈ 0.105 µM) | 0.25 (≈ 0.105 µM) | 0.125 (≈ 0.0527 µM) | 0.125 (≈ 0.0527 µM) | CN[C@H](C(=O)N[C@H](C(=O)N[C@@H](Cc1ccc(O)cc1)C(=O)N[C@H]1CSSC[C@@H](C(=O)N[C@H](C(=O)N[C@@H](C)C(=O)N[C@@H](CO)C(N)=O)C(C)C)NC(=O)[C@H](Cc2c[nH]c3ccccc23)NC(=O)[C@H](CO)NC(=O)[C@@H](CCN)NC(=O)[C@H](CCC(=O)N[C@@H](CCN)C(=O)N[C@H](C(=O)N[C@@H](CCN)C(=O)N[C@H]2CCNC(=O)[C@H]([C@@H](C)O)NC(=O)[C@H](CCN)NC(=O)[C@H](CCN)NC(=O)[C@H](CC(C)C)NC(=O)[C@@H](CC(C)C)NC(=O)[C@H](CCN)NC2=O)[C@@H](C)O)NC1=O)[C@@H](C)O)C(C)C [Ex. 184] (I: H-[NMeV]TYCE[dDab]SWCVAS-NH2 / II: [Dab]T[Dab][Dab][Dab][dL]L[Dab][Dab]T; disulfide I:4-I:9; amide I:5-II:N; lactam II:4-II:C) | <1
 | 8 (≈ 3.29 µM) |  | 1 (≈ 0.412 µM) | 2 (≈ 0.823 µM) | 2 (≈ 0.823 µM) |  |  | 0.25 (≈ 0.103 µM) | 0.25 (≈ 0.103 µM) | 0.25 (≈ 0.103 µM) | 0.25 (≈ 0.103 µM) | CC(C)C[C@@H]1NC(=O)[C@@H](CC(C)C)NC(=O)[C@H](CCN)NC(=O)[C@@H](NC(=O)[C@H](CCN)NC(=O)[C@@H](NC(=O)[C@H](CCN)NC(=O)CC[C@@H]2NC(=O)[C@@H](NC(=O)[C@H](CO)NC(=O)[C@@H](NC(=O)[C@@H](O)C(C)C)[C@@H](C)O)CSSC[C@@H](C(=O)N[C@H](C(=O)N[C@@H](C)C(=O)N[C@@H](Cc3ccc(O)cc3)C(=O)NCCO)C(C)(C)C)NC(=O)[C@H](Cc3c[nH]c4ccccc34)NC(=O)[C@H](CCO)NC(=O)[C@@H](CCN)NC2=O)[C@@H](C)O)CCNC(=O)[C@H]([C@@H](C)O)NC(=O)[C@H](CCN)NC(=O)[C@H](CCN)NC1=O [Ex. 236] (I: H-[Hiv]TSCE[dDab][hSer]WC[Tle]AY-NHCH2CH2OH / II: [Dab]T[Dab][Dab][Dab][dL]L[Dab][Dab]T; disulfide I:4-I:9; amide I:5-II:N; lactam II:4-II:C) | <1
